34 molecules from patent US8569281B2, “Compounds and their administration for treating a neurodegenerative disease as well as a method for identifying a compound capable of inhibiting a kinase, such as LRRK” (Medical Research Council Technology, priority 2010, dated 2013) can be followed below.

In general, Ki refers to the equilibrium dissociation constant of an inhibitor or competing ligand from its target.

For the assay, the target named is LRRK2 (Homo sapiens (Human), UniProt Q5S007). In words: In Vitro LRRK2 Assay (LabChip 3000, fluorescently-labeled peptide substrate). The class given is biochemical. The following applies: read-out: Ki (μM), affinity values for LRRK2. How it is done: This assay was used to determine a compound's potency in inhibiting activity of LRRK2 by determining, Kiapp, IC50, or percent inhibition values. In a polypropylene plate, LRRK2, fluorescently-labeled peptide substrate, ATP and test compound were incubated together. Using a LabChip 3000 (Caliper Life Sciences), after the reaction the substrate was separated by capillary electrophoresis into two populations: phosphorylated and unphosphorylated. The relative amounts of each were quantitated by fluorescence intensity. LRRK2 Ki was determined according to the equation: Y=V0*(1−((x+Ki*(1+S/Km)+Et)/(2*Et)−(((x+Ki*(1+S/Km)+Et)^2−(4*Et*x))^0.5)/(2*Et))).
Ki values in Table 4 and elsewhere herein are shown in μM.
Assay conditions and materials used were as follows:
Compound Plate Preparation:
For serial dilutions, 34.6 μl DMSO was added to columns 3-24.
Total and Blank Preparation:
In Complete Reaction Buffer, substrate was diluted to 4 μM. Equal volumes of Complete Reaction Buffer and 4 μM substrate were combined to obtain the blank. Equal volumes of Complete Reaction Buffer and 4 μM substrate were combined and to the combined solution was added 2× final LRRK2 concentration.
To a 50 μl polypropylene plate, 5 μl/well buffer/substrate was added by hand to Blank wells. A Biomek FX was used to start the kinase reaction (“PLK SAR 23 ATP”). The following were added to the appropriate wells: • 2 μl compound+23 μl ATP; • 5 μl/well compound/ATP in Assay Plate; • 5 μl/well kinase/substrate in Assay Plate;
The plate was incubated for 2 hours in the dark. Biomek FX was used to stop the kinase reaction (“PLK Stop”), and 10 μl/well Stop solution was added to the Assay Plate. Results were read on the LabChip 3000.
The LabChip 3000 was run using the job “LRRK2 IC50” with the following job settings: • Pressure: −1.4 psi • Downstream voltage: −500 V • Upstream voltage: −2350 V • Post sample buffer sip time: 75 seconds • Post dye buffer sip time: 75 seconds • Final delay time: 200 seconds Parkinson's Disease Animal Model

Setting [1] is: ATP 130 μM, substrate 1 μM, 2 hours, ambient temperature, LRRK2 variant not given.

Where two headings read alike, the source gives them in different places.

LRRK2, sequence (Q5S007 whole entry G2019S): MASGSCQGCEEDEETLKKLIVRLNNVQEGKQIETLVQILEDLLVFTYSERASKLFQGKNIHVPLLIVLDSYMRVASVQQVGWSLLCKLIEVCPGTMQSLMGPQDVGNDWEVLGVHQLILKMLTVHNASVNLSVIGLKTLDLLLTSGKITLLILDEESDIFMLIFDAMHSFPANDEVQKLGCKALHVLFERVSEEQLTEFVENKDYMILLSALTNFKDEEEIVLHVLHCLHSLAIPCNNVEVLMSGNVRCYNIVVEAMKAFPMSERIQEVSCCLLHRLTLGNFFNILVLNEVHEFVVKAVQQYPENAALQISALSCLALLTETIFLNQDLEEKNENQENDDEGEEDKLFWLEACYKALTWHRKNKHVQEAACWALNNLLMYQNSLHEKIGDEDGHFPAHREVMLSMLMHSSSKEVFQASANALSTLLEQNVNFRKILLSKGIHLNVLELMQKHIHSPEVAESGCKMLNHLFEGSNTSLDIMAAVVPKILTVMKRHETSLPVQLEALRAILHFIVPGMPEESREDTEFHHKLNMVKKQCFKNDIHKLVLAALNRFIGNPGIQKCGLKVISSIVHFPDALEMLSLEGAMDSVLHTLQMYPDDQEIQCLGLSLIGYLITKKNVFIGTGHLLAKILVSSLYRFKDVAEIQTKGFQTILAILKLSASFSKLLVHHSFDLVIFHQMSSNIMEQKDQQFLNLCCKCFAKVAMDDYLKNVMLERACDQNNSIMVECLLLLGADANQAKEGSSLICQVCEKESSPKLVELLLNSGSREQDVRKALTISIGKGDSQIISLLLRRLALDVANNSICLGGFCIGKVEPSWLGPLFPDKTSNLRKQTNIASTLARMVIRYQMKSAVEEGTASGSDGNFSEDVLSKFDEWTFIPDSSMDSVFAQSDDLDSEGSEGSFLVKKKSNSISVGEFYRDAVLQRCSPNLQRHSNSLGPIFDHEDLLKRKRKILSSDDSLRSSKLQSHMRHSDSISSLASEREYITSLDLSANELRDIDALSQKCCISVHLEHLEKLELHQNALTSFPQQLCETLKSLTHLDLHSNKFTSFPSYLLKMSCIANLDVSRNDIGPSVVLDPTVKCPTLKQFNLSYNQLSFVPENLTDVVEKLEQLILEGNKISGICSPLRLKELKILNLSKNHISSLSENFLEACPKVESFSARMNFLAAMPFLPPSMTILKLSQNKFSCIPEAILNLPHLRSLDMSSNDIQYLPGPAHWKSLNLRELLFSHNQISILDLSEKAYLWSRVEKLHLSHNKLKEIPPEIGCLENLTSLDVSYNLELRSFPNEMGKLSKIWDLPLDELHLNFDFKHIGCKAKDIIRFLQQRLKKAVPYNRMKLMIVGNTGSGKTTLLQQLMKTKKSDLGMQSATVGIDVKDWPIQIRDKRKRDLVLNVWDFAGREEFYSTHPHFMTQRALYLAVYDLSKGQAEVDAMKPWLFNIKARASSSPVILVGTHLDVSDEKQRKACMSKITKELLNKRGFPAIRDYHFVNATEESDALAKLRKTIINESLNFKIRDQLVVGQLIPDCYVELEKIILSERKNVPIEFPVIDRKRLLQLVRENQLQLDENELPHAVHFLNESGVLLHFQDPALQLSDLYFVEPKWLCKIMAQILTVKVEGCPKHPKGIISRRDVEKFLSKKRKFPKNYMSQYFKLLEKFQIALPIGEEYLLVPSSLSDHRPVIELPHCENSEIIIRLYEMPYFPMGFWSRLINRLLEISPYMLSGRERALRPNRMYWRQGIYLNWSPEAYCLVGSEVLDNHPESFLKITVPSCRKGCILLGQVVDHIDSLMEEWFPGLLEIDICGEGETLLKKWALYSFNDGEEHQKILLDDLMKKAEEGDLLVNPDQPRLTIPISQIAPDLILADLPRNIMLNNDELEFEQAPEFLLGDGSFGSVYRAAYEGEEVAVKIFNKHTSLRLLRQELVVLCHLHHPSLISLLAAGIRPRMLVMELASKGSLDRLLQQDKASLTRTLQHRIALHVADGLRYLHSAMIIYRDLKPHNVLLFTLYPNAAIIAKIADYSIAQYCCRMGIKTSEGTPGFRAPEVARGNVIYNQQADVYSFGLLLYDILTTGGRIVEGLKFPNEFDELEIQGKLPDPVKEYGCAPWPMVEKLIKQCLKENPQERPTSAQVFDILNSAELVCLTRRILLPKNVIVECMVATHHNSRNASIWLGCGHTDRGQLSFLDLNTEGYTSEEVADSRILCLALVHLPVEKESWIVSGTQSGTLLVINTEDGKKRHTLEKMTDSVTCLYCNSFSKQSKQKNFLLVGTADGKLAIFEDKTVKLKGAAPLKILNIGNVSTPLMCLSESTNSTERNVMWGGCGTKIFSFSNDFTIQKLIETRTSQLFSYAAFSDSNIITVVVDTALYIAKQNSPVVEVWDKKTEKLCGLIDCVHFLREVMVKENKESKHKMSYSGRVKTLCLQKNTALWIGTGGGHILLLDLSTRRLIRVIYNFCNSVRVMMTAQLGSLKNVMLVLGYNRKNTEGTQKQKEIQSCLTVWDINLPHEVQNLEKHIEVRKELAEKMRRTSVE

For “3-(1-((2,2-difluorocyclopropyl)methyl)-1H-benzo[d]imidazol-5-yl)-4-(tetrahydro-2H-pyran-4-yloxy)-1H-pyrazolo[4,3-c]pyridine [Example 127]”, the Ki under setting [1] came to 0.023 µM.
Turning to “3-(1-(Oxetan-3-yl)-1H-benzo[d]imidazol-6-yl)-4-(tetrahydro-2H-pyran-4-yloxy)-1H-pyrazolo[4,3-c]pyridine [Example 124]”, the Ki turned out to be 0.019 µM.
Turning to “3-(1-(oxetan-3-yl)-1H-benzo[d]imidazol-5-yl)-4-(tetrahydro-2H-pyran-4-yloxy)-1H-pyrazolo[4,3-c]pyridine [Example 125]”, the Ki was found to be 0.056 µM.
Regarding “3-(1-isopropyl-1H-benzo[d]imidazol-5-yl)-4-(tetrahydro-2H-pyran-4-yloxy)-1H-pyrazolo[4,3-c]pyridine [Example 123]”, under setting [1], the Ki was determined as 0.02 µM.
Same read-out and setting: next, `CC1CCCN(C(=O)CCc2[nH]nc3ccnc(NC4CCOCC4)c23)C1` (stereo in doubt) [Example 2, 1-[(3R)-3-methylpiperidin-1-yl]-3-[4-(tetrahydro-2H-pyran-4-ylamino)-1H-pyrazolo-[4,3-c]pyridin-3-yl]propan-1-one]: 0.034 µM; `O=C(CCc1[nH]nc2ccnc(OC3CCCCC3)c12)N1CCC[C@H](c2ccccc2)C1` [Example 6, 3-[4-(Cyclohexyloxy)-1H-pyrazolo[4,3-c]pyridin-3-yl]-1-[(3R)-3-phenylpiperidin-1-yl]propan-1-one]: 0.014 µM.
Still for that read-out and setting: next, `O=C(c1ccc(CCc2n[nH]c3ccnc(NC4CCCCC4)c23)cc1)N1CCN(C2CC2)CC1` [Example 8, (4-{2-[4-(Cyclohexylamino)-1H-pyrazolo[4,3-c]pyridin-3-yl]ethyl}phenyl)(4-cyclopropylpiperazin-1-yl)methanone]: 0.017 µM; `c1cc(-c2n[nH]c3ccnc(NC4CCOCC4)c23)cc(N2CCOCC2)n1` [Example 9, 3-[2-(Morpholin-4-yl)pyridin-4-yl]-N-(tetrahydro-2H-pyran-4-yl)-1H-pyrazolo[4,3-c]pyridin-4-amine]: 0.027 µM; `CN1CCN(c2cc(-c3n[nH]c4ccnc(OC5CCOCC5)c34)ccn2)CC1` [Example 14, 3-[2-(4-Methylpiperazin-1-yl)pyridin-4-yl]-4-(tetrahydro-2H-pyran-4-yloxy)-1H-pyrazolo[4,3-c]pyridine]: 0.006 µM.
The same measure, in the same setting: the result for `c1cc2n[nH]c(C3CC3)c2c(OC2CCCCC2)n1` [Example 26, 4-(Cyclohexyloxy)-3-cyclopropyl-1H-pyrazolo[4,3-c]pyridine] reads 0.024 µM; that for `c1cc2n[nH]c(C3CC3)c2c(OC2CCOCC2)n1` [Example 28, 3-Cyclopropyl-4-(tetrahydro-2H-pyran-4-yloxy)-1H-pyrazolo[4,3-c]pyridine], 0.035 µM.
For the molecule `CC[C@@H](C)Oc1nccc2[nH]nc(C3CC3)c12` [Example 29, 3-Cyclopropyl-4-[(2R)-butan-2-yloxy)-1H-pyrazolo[4,3-c]pyridine], under setting [1], the Ki worked out at 0.078 µM.
Same read-out and setting: the result for `Cc1[nH]nc2ccnc(OC3CCOC3)c12` (stereo not shown) [Example 31] reads 0.158 µM; that for `c1coc(-c2n[nH]c3ccnc(OC4CCOCC4)c23)c1` [Example 37, 3-(Furan-2-yl)-4-(tetrahydro-2H-pyran-4-yloxy)-1H-pyrazolo[4,3-c]pyridine], 0.132 µM.
Turning to `c1cc2[nH]nc(-c3cnn(C4CCCC4)c3)c2c(OC2CCOCC2)n1` [Example 39, 3-(1-Cyclopentyl-1H-pyrazol-4-yl)-4-(tetrahydro-2H-pyran-4-yloxy)-1H-pyrazolo[4,3-c]pyridine], under setting [1], the Ki came to 0.006 µM.
As to `c1cc2[nH]nc(-c3cnn(CC4CCC4)c3)c2c(OC2CCCCC2)n1` [Example 41, 3-[1-(Cyclobutylmethyl)-1H-pyrazol-4-yl]-4-(cyclohexyloxy)-1H-pyrazolo[4,3-c]pyridine], the Ki under setting [1] is 0.055 µM.
Same read-out and setting: next, `Cn1cc(/C=C/c2n[nH]c3ccnc(OC4CCCCC4)c23)cn1` [Example 52, 4-(Cyclohexyloxy)-3-[(E)-2-(1-methyl-1H-pyrazol-4-yl)ethenyl]-1H-pyrazolo[4,3-c]pyridine]: 0.0003 µM.
On the same count and under the same terms, next, `CC(C)Oc1nccc2[nH]nc(-c3cc(C(=O)N(C)C)n(C(C)C)c3)c12` [Example 54, 4-(4-isopropoxy-1H-pyrazolo[4,3-c]pyridine-3-yl)-1-isopropyl-N,N-dimethyl-1H-pyrrole-2-carboxamide]: 0.018 µM.
`CC(C)Oc1nccc2[nH]nc(-c3cc(C(=O)N4CCCCC4)n(C(C)C)c3)c12` [Example 56, (4-(4-Isopropoxy-1H-pyrazolo[4,3-c]pyridin-3-yl)-1-isopropyl-1H-pyrrol-2-yl)(piperidin-1-yl)methanone]: the Ki under setting [1] was determined as 0.019 µM.
The same measure, in the same setting: the result for `CC(C)Oc1nccc2[nH]nc(-c3cc(C(=O)N4CCOCC4)n(C(C)C)c3)c12` [Example 57, (4-(4-Isopropoxy-1H-pyrazolo[4,3-c]pyridin-3-yl)-1-isopropyl-1H-pyrrol-2-yl)(morpholino)methanone] reads 0.019 µM; that for `CC(C)Oc1nccc2[nH]nc(-c3cc(C(=O)NC4COC4)n(C(C)C)c3)c12` [Example 59, 4-(4-Isopropoxy-1H-pyrazolo[4,3-c]pyridin-3-yl)-1-isopropyl-N-(oxetan-3-yl)-1H-pyrrole-2-carboxamide], 0.0024 µM; that for `COc1nccc2[nH]nc(-c3cc(C(=O)N(C)C)n(C(C)C)c3)c12` [Example 61, 1-Isopropyl-4-(4-methoxy-1H-pyrazolo[4,3-c]pyridin-3-yl)-N,N-dimethyl-1H-pyrrole-2-carboxamide], 0.077 µM.
Same read-out and setting: next, `COc1nccc2[nH]nc(-c3cc(C(=O)NC4COC4)n(C(C)C)c3)c12` [Example 64, 1-isopropyl-4-(4-methoxy-1H-pyrazolo[4,3-c]pyridin-3-yl)-N-(oxetan-3-yl)-1H-pyrrole-2-carboxamide]: 0.014 µM; `CC(C)n1cc(-c2n[nH]c3ccnc(OC4CCOCC4)c23)cc1C(=O)N1CCOCC1` [Example 65, (1-isopropyl-4-(4-(tetrahydro-2H-pyran-4-yloxy)-1H-pyrazolo[4,3-c]pyridin-3-yl)-1H-pyrrol-2-yl)(morpholino)methanone]: 0.039 µM; `CC(C)n1cc(-c2n[nH]c3ccnc(OC4CCOCC4)c23)cc1C(=O)N(C)C` [Example 66, 1-isopropyl-N,N-dimethyl-4-(4-(tetrahydro-2H-pyran-4-yloxy)-1H-pyrazolo[4,3-c]pyridin-3-yl)-1H-pyrrole-2-carboxamide]: 0.045 µM.
Same read-out and setting: the result for `CC(C)n1cc(-c2n[nH]c3ccnc(OC4CCOCC4)c23)cc1C(=O)NC1COC1` [Example 70, 1-isopropyl-N-(oxetan-3-yl)-4-(4-(tetrahydro-2H-pyran-4-yloxy)-1H-pyrazolo[4,3-c]pyridin-3-yl)-1H-pyrrole-2-carboxamide] reads 0.003 µM.
Take `O=C(c1cc(-c2n[nH]c3ccnc(OC4CCOCC4)c23)ccn1)N1CCOCC1` [Example 73, Morpholino(4-(4-(tetrahydro-2H-pyran-4-yloxy)-1H-pyrazolo[4,3-c]pyridin-3-yl)pyridin-2-yl)methanone]: under setting [1], the Ki came to 0.221 µM.
Turning to `FC(F)(F)COc1nccc2[nH]nc(-c3ccnc(N4CCOCC4)c3)c12` [Example 74, 4-(4-(4-(2,2,2-Trifluoroethoxy)-1H-pyrazolo[4,3-c]pyridin-3-yl)pyridin-2-yl)morpholine], under setting [1], the inhibitory constant (Ki) turned out to be 0.031 µM.
On to `CC(C)n1cc(-c2n[nH]c3ccnc(OCC(F)(F)F)c23)cn1` [Example 76, 3-(1-Isopropyl-1H-pyrazol-4-yl)-4-(2,2,2-trifluoroethoxy)-1H-pyrazolo[4,3-c]pyridine], for which the Ki under setting [1] stood at 0.026 µM.
`CC(C)n1cc(-c2n[nH]c3ccnc(OC(C)C(F)(F)F)c23)cn1` (stereo not shown) [Example 78, 3-(1-Isopropyl-1H-pyrazol-4-yl)-4-(2,2,2-trifluoro-1-methyl-ethoxy)-1H-pyrazolo[4,3-c]pyridine]: the Ki under setting [1] amounted to 0.013 µM.
Consider `c1cc(-c2n[nH]c3ccnc(OC4CCOCC4)c23)nc(N2CCOCC2)n1` [Example 84, 4-(4-(4-(tetrahydro-2H-pyran-4-yloxy)-1H-pyrazolo[4,3-c]pyridin-3-yl)pyrimidin-2-yl)morpholine], for which, under setting [1], the Ki turned out to be 0.065 µM.
Still for that read-out and setting: next, `COc1nccc2[nH]nc(-c3cnn(C4COC4)c3)c12` [Example 86]: 0.031 µM.
Still for that read-out and setting: next, `COc1nccc2[nH]nc(-c3cnn(CC(F)(F)F)c3)c12` [Example 88, 4-Methoxy-3-(1-(2,2,2-trifluoroethyl)-1H-pyrazol-4-yl)-1H-pyrazolo[4,3-u]pyridine]: 0.025 µM; `COc1nccc2[nH]nc(-c3cnn(CC4(C)COC4)c3)c12` [Example 89, 4-Methoxy-3-(1-((3-methyloxetan-3-yl)methyl)-1H-pyrazol-4-yl)-1H-pyrazolo[4,3-c]pyridine]: 0.108 µM.
